From patent US11021493B2, “1,4-thiazine dioxide and 1,2,4-thiadiazine dioxide derivatives as beta-secretase inhibitors and methods of use” (AMGEN INC., priority 2016, dated 2021)

How the values were obtained:
BACE1 [1] = biological target: T1, BACE1 (Homo sapiens (Human), UniProt P56817); test: In vitro enzymatic BACE1 FRET assay; assay type: biochemical; conditions: read-out: BACE1 Enzyme IC50
Target sequence in this assay (P56817 46-501): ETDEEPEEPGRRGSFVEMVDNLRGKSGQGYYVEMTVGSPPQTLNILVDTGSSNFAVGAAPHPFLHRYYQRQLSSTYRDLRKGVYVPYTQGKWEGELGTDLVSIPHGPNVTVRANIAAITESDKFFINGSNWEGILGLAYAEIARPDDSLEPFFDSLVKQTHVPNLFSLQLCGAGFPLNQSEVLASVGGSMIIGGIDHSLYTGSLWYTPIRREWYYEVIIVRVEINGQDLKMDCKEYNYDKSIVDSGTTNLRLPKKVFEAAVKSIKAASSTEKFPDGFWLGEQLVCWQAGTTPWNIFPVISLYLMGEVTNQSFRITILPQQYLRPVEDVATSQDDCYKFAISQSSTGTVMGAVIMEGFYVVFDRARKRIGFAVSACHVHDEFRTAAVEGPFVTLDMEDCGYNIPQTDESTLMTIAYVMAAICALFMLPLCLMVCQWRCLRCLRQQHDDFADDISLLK

BACE1 [2] = biological target: T1, BACE1; test: In vitro BACE1 cell-based assay (Aβ40 in conditioned medium of cells stably expressing APP, HTRF); conditions: Aβ40 in conditioned media after 24 h incubation
Target sequence in this assay (P56817 46-501, species assumed): as the sequence (P56817 46-501) above

Cathepsin D (CatD) = Cathepsin D (CatD) (Homo sapiens (Human), UniProt P07339); test: In vitro enzymatic Cathepsin D (CatD) FRET assay; assay type: biochemical; conditions: read-out: Cat D Enzyme IC50
Cathepsin D (CatD), sequence (P07339 65-412, species assumed): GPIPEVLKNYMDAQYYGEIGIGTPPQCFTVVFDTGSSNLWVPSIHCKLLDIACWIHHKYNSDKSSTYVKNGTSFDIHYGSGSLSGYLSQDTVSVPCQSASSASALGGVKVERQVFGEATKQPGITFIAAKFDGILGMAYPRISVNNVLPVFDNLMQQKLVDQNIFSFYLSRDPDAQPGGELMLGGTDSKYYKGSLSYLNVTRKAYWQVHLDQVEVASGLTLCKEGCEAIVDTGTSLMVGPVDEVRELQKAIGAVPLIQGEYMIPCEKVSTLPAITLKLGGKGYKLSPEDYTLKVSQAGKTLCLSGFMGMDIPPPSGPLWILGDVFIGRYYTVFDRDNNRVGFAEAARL

human recombinant BACE2 = human recombinant BACE2 (Homo sapiens (Human), UniProt Q9Y5Z0); test: In vitro enzymatic BACE2 FRET assay; assay type: biochemical; conditions: read-out: BACE2 Enzyme IC50
human recombinant BACE2, sequence (Q9Y5Z0 63-518): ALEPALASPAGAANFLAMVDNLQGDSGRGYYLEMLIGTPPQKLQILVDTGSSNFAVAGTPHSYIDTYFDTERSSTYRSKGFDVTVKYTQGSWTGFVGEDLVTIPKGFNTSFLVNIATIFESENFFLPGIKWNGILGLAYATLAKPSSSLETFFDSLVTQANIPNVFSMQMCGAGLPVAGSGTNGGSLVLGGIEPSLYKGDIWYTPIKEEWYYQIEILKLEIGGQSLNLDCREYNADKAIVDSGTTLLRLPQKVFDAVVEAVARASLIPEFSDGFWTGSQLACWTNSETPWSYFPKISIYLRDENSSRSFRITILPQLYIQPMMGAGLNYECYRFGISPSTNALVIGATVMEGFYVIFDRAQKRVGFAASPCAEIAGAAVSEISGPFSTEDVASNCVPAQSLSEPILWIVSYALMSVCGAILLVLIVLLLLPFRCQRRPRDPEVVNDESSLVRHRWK

SMILES	IC50 (BACE1 [1]) [nM]	IC50 (BACE1 [2]) [nM]	IC50 (Cathepsin D (CatD)) [nM]	IC50 (human recombinant BACE2) [nM]
CN1C(N)=N[C@](C)(c2cc(/C=C(\F)c3ncc(C#N)cc3Cl)cc(F)c2F)CS1(=O)=O [Example 276, (R,Z)-6-(2-(3-(3-amino-2,5-dimethyl-1,1-dioxido-5,6-dihydro-2H-1,2,4-thiadiazin-5-yl)-4,5-difluorophenyl)-1-fluorovinyl)-5-chloronicotinonitrile]	2	17	58000	6
CC#C[C@@H](C)Oc1cnc(/C(F)=C/c2ccc(F)c([C@]3(C)CS(=O)(=O)C(C)(C)C(N)=N3)c2)cn1 (single isomer, unassigned) [Example 207]	507	2530	57500	519
CN1C(N)=N[C@](C)(c2cc(/C=C(\F)c3ccc(F)cn3)cc(F)c2F)CS1(=O)=O [Example 270, (R,Z)-3-amino-5-(2,3-difluoro-5-(2-fluoro-2-(5-fluoropyridin-2-yl)vinyl)phenyl)-2,5-dimethyl-5,6-dihydro-2H-1,2,4-thiadiazine 1,1-dioxide]	75	138	265000	28
CC#C[C@H](C)Oc1cnc(/C(F)=C/c2ccc(F)c([C@]3(C)CS(=O)(=O)C(C)(C)C(N)=N3)c2)cn1 (single isomer, unassigned) [Example 208]	1	5	79500	107
CC1(C)C(N)=N[C@](C)(c2cc(/C=C(\F)c3ncc(C#N)cc3Cl)ccc2F)CS1(=O)=O [Example 268, (R,Z)-6-(2-(3-(5-amino-3,6,6-trimethyl-1,1-dioxido-3,6-dihydro-2H-1,4-thiazin-3-yl)-4-fluorophenyl)-1-fluorovinyl)-5-chloronicotinonitrile]	7	35	136000	12
C[C@H](O)COc1cnc(/C(F)=C/c2ccc(F)c([C@]3(C)CS(=O)(=O)C(C)(C)C(N)=N3)c2)cn1 [Example 219, (R)-5-amino-3-(2-fluoro-5-((Z)-2-fluoro-2-(5-((S)-2-hydroxypropoxy)pyrazin-2-yl)vinyl)phenyl)-3,6,6-trimethyl-3,6-dihydro-2H-1,4-thiazine 1,1-dioxide]	136	142	208000	377
CC#CCOc1cnc(/C(F)=C/c2ccc(F)c([C@]3(CF)CS(=O)(=O)C(C)(C)C(N)=N3)c2)cn1 [Example 194, (S,Z)-5-amino-3-(5-(2-(5-(but-2-yn-1-yloxy)pyrazin-2-yl)-2-fluorovinyl)-2-fluorophenyl)-3-(fluoromethyl)-6,6-dimethyl-3,6-dihydro-2H-1,4-thiazine 1,1-dioxide]	7	55	49400	181
Cc1nnc(COc2cnc(/C(F)=C/c3ccc(F)c([C@@]4(C)N=C(N)[C@@]5(CF)CC[C@@H]4S5(=O)=O)c3)cn2)o1 [Example 119, (1R,4R,5S)-2-amino-4-(2-fluoro-5-((Z)-2-fluoro-2-(5-((5-methyl-1,3,4-oxadiazol-2-yl)methoxy)pyrazin-2-yl)vinyl)phenyl)-1-(fluoromethyl)-4-methyl-8-thia-3-azabicyclo[3.2.1]oct-2-ene 8,8-dioxide]	21	60	> 400000	182
Cc1cc(COc2cnc(/C(F)=C/c3ccc(F)c([C@@]4(C)N=C(N)N(C)S(=O)(=O)C45CC5)c3)cn2)no1 [Example 162, (8R)-8-(2-fluoro-5-((Z)-2-fluoro-2-(5-((5-methyl-3-isoxazolyl)methoxy)-2-pyrazinyl)ethenyl)phenyl)-5,8-dimethyl-4-thia-5,7-diazaspiro[2.5]oct-6-en-6-amine 4,4-dioxide]	65	168	15700	732
C=CCOc1cnc(/C(F)=C/c2ccc(F)c([C@@]3(C)N=C(N)[C@@]4(CF)CC[C@@H]3S4(=O)=O)c2)cn1 [Example 125, (1R,4R,5S)-4-(5-((Z)-2-(5-(allyloxy)pyrazin-2-yl)-2-fluorovinyl)-2-fluorophenyl)-2-amino-1-(fluoromethyl)-4-methyl-8-thia-3-azabicyclo[3.2.1]oct-2-ene 8,8-dioxide]	48	446	91200	163
Cc1nnc(COc2cnc(/C(F)=C/c3ccc(F)c([C@]4(C)CS(=O)(=O)N(C)C(N)=N4)c3)cn2)o1 [Example 173, (R,Z)-3-amino-5-(2-fluoro-5-(2-fluoro-2-(5-((5-methyl-1,3,4-oxadiazol-2-yl)methoxy)pyrazin-2-yl)vinyl)phenyl)-2,5-dimethyl-5,6-dihydro-2H-1,2,4-thiadiazine 1,1-dioxide]	7	9	78100	103
CN1C(N)=N[C@](C)(c2cc(/C=C(\F)c3cnc(OCC#CCF)cn3)ccc2F)CS1(=O)=O [Example 254, (R,Z)-3-amino-5-(2-fluoro-5-(2-fluoro-2-(5-((4-fluorobut-2-yn-1-yl)oxy)pyrazin-2-yl)vinyl)phenyl)-2,5-dimethyl-5,6-dihydro-2H-1,2,4-thiadiazine 1,1-dioxide]	7	21	28300	52
C[C@]1(c2cc(/C=C(\F)c3cnc(OCC(F)(F)C(F)F)cn3)ccc2F)N=C(N)[C@@]2(CF)CC[C@@H]1S2(=O)=O [Example 120, (1R,4R,5S)-2-amino-4-(2-fluoro-5-((Z)-2-fluoro-2-(5-(2,2,3,3-tetrafluoropropoxy)pyrazin-2-yl)vinyl)phenyl)-1-(fluoromethyl)-4-methyl-8-thia-3-azabicyclo[3.2.1]oct-2-ene 8,8-dioxide]	37	542	> 400000	258
CC1(C)C(N)=N[C@](C)(c2cc(/C=C(\F)c3cnc(OCCn4cc(Br)cn4)cn3)ccc2F)CS1(=O)=O [Example 156, (R,Z)-5-amino-3-(5-(2-(5-(2-(4-bromo-1H-pyrazol-1-yl)ethoxy)pyrazin-2-yl)-2-fluorovinyl)-2-fluorophenyl)-3,6,6-trimethyl-3,6-dihydro-2H-1,4-thiazine 1,1-dioxide]	96	1320	90500	671
CC1(C)C(N)=N[C@](C)(c2cc(/C=C(\F)c3cnc(Cl)cn3)ccc2F)C(F)(F)S1(=O)=O [Example 191, (R,Z)-5-amino-3-(5-(2-(5-chloropyrazin-2-yl)-2-fluorovinyl)-2-fluorophenyl)-2,2-difluoro-3,6,6-trimethyl-3,6-dihydro-2H-1,4-thiazine 1,1-dioxide]	128	5090	62200	52
C[C@]1(c2cc(/C=C(\F)c3ccc(C#N)cn3)ccc2F)N=C(N)C2(CF)CC[C@@H]1S2(=O)=O (stereo in doubt) [Example 102, 6-((Z)-2-(3-((1S,2R,5R)-4-amino-5-(fluoromethyl)-2-methyl-8,8-dioxido-8-thia-3-azabicyclo[3.2.1]oct-3-en-2-yl)-4-fluorophenyl)-1-fluorovinyl)nicotinonitrile]	5	17	> 133000	32
CC1(C)C(N)=N[C@](C)(c2cc(/C=C(\F)c3cnc(OCCC(F)(F)F)cn3)ccc2F)CS1(=O)=O [Example 142, (R,Z)-5-amino-3-(2-fluoro-5-(2-fluoro-2-(5-(3,3,3-trifluoropropoxy)pyrazin-2-yl)vinyl)phenyl)-3,6,6-trimethyl-3,6-dihydro-2H-1,4-thiazine 1,1-dioxide]	193	739	90500	425
COc1cnc(/C(F)=C/c2ccc(F)c([C@]3(C)CS(=O)(=O)N(C)C(N)=N3)c2)cn1 [Example 241, (5R)-5-(2-fluoro-5-((Z)-2-fluoro-2-(5-methoxy-2-pyrazinyl)ethenyl)phenyl)-2,5-dimethyl-5,6-dihydro-2H-1,2,4-thiadiazin-3-amine 1,1-dioxide]	107	168	91300	75
CN1C(N)=N[C@](C)(c2cc(/C=C(\F)c3cc(C#N)c(Cl)cn3)ccc2F)CS1(=O)=O [Example 231, (R,Z)-2-(2-(3-(3-amino-2,5-dimethyl-1,1-dioxido-5,6-dihydro-2H-1,2,4-thiadiazin-5-yl)-4-fluorophenyl)-1-fluorovinyl)-5-chloroisonicotinonitrile]	84	97	> 4940	94
CN1C(N)=N[C@](C)(c2cc(/C=C(\F)c3cnc(C4CC4)cn3)ccc2F)CS1(=O)=O [Example 266, (R,Z)-3-amino-5-(5-(2-(5-cyclopropylpyrazin-2-yl)-2-fluorovinyl)-2-fluorophenyl)-2,5-dimethyl-5,6-dihydro-2H-1,2,4-thiadiazine 1,1-dioxide]	750	653	69800	78
CC#C[C@H](CC)Oc1cnc(/C(F)=C/c2ccc(F)c([C@]3(C)CS(=O)(=O)C(C)(C)C(N)=N3)c2)cn1 (single isomer, unassigned) [Example 199]	4	2	51200	102
CN1C(N)=N[C@](C)(c2cc(/C=C(\F)c3cnc(OCC(F)(F)F)cn3)ccc2F)C2(CC2)S1(=O)=O [Example 163, (8R)-8-(2-fluoro-5-((Z)-2-fluoro-2-(5-(2,2,2-trifluoroethoxy)-2-pyrazinyl)ethenyl)phenyl)-5,8-dimethyl-4-thia-5,7-diazaspiro[2.5]oct-6-en-6-amine 4,4-dioxide]	133	1120	223000	2880
